Reference: patent publication US10653779B2, “Formulations with reduced oxidation” (Genentech, Inc., priority 2013, dated 2020)
Entries after “also recorded” stand apart in the source; their conditions may differ.

Assays:
mAb1 [1] = assay: mAb1 light stress, eight hours, with L-Trp and L-Met; Fab/Fc oxidation by papain digest RP-HPLC; type: physicochemical, human; details: 8 h light at 250 W/m^2
Protocol: L-tryptophan (L-Trp), an antioxidant used in protein formulations, has been recently shown to be photosensitive (Igarashi et al., Anal Sci 23(8):943-8 (2007)) and to have the ability to produce H2O2 upon light exposure. […] Control vials were wrapped in aluminum foil and treated similarly. After light exposure, solutions were prepared for analysis by reverse-phase HPLC. […] Following incubation, 900 μL of the solution was combined with 100 μL of 1 M dithiothreitol (DTT) and incubated for another thirty minutes at 37° C. Samples were then run on an Agilent, Inc. 1100/1200 HPLC system (Santa Clara, Calif.) equipped with UV detection at 280 nm in conjunction with a Varian, Inc. Pursuit 3 μm, 2 mm ID×250 mm diphenyl column (Palo Alto, Calif.). Mobile Phase A was 0.1% TFA in water. Mobile Phase B was 0.1% TFA in acetonitrile. The mobile phase gradient increased linearly from 34% B at 0 minutes to 43% B at 50.0 minutes, then to 95% B at 50.1 minutes. The gradient remained at 95% B until 60.1 minutes, and then decreased linearly from 95% B to 34% B between 60.1 and 60.2 minutes. The gradient remained at 34% B until the end of the cycle at 80.2 minutes. The column temperature was 65° C., total flow rate was 0.2 mL/min, and injection volume of each sample was 6 μL. Chromatograms were then integrated for quantification of oxidation.

[2] = Photosensitivity screening: H2O2 formation by antioxidant candidates upon light exposure (Amplex Ultra Red Assay); type: physicochemical; details: for (H2O2 produced by Compound)/(H2O2 produced by L-Trp): 1 mM in 20 mM histidine acetate pH 5.5, four hours of light at 250 W/m^2; for H2O2 production upon light exposure compared to L-Trp (in words) / H2O2 produced in comparison to L-Trp (times more): 1 mM, 20 mM L-His-acetate pH 5.5, 4 h light; for H2O2 production upon light exposure compared to L-Trp (in words): 0.22 million lux hours
Protocol: As a screening tool, antioxidant candidates were exposed to light for four hours at 250 W/m^2 and the resulting H2O2 formation was quantified by the Amplexassay. Specifically, antioxidants were prepared to 1 mM in 20 mM histidine acetate buffer at pH 5.5. The 1 mM antioxidant solutions were aliquoted into glass vials (2 mL/glass vial) and exposed to four hours of light at 250 W/m^2 in an Atlas SunTest CPS+ Xenon Test Instrument (Chicago, Ill.). Total UV dose was 90 watt-hours/square meter and total visible dose was 0.22 million lux hours over the 4-hour period. Control vials were wrapped in aluminum foil and treated similarly. The amount of hydrogen peroxide generated after exposure to light was measured using the Amplex® Ultra Red Assay (Invitrogen, Carlsbad, Calif.) following the manufacturer's recommended procedure. On addition of horseradish peroxidase (HRP), the dye reacted 1:1 stoichiometrically with H2O2, resulting in the production of fluorescent oxidation product resorufin. In this study, fluorescence readings were obtained using a Spectra Max M2 Micro-plate Reader (Molecular Devices, Sunnyvale, Calif.) with excitation and emission set at 560 nm and 590 nm, respectively. Final H2O2 concentrations were determined using a standard curve ranging from 0 μm to 20 μm. […]

[3] = Cyclic voltammetry (CV) screening of oxidation potentials; type: physicochemical; details: for Oxidation Potential (anodic peak): glassy carbon working electrode, 0.2 M lithium perchlorate; for Oxidation potential relative to L-Trp (in words): cyclic voltammetry
Protocol: The oxidation/reduction characteristics of the compounds were investigated. Several compounds, including L-Trp and derivatives, were evaluated for the protection of Trp oxidation in proteins using cyclic voltammetry (CV) and rank ordered based on their oxidation potentials (Table 2). Specifically, the candidate antioxidants were dissolved in deionized water and then added to a 0.2 M lithium perchlorate electrolyte solution. […] Solutions were scanned from −0.10 V to +1.50 V at a scan rate of either 100 or 500 mV/sec. The analytical cell was purged for four minutes with nitrogen before scanning of each antioxidant solution. The input was a linear scan of the potential of a working electrode, and the output was measurement of the resulting current. […] Redox reactions were characterized by sharp increases or decreases in current (peaks). The potential at which an oxidation reaction occurred was referred to as the anodic peak potential (or oxidation potential), and the potential at which a reduction occurred was referred to as is the cathodic peak (or reduction) potential.

mAb1 [4] = assay: mAb1 light stress study, 16 hours; Fab/Fc oxidation by RP-HPLC; type: physicochemical, human; details: 16 hours of light at 250 W/m^2, excipient 1 mM
Protocol: (§1) The fragments were reduced with DTT, and then separated and identified via Liquid Chromatography-Mass Spectrometry (LC-MS). […] Comparison of area integrated under the oxidized and native peaks was used to quantify HC Fab and Fc oxidation. […] By using the papain digest RP-HPLC method in the present study it was possible to investigate Trp residue oxidation by quantifying HC Fab oxidation, and Met residue oxidation by quantifying HC Fc oxidation.
Antioxidants were added at 1 mM. Glass vials containing these formulations were exposed to 250 W/m^2 light in an Atlas SunTest CPS+ Xenon Test Instrument (Chicago, Ill.). Control vials were wrapped in aluminum foil and treated similarly. After light exposure, solutions were prepared for analysis by reverse-phase HPLC as described above.

mAb1 [5] = assay: mAb1 AAPH stress study; Fab/Fc oxidation by RP-HPLC; type: physicochemical, human; details: AAPH, 24 hours at 40° C.; antioxidants at 1 mM; label mAb1 = no excipient
Description: as §1
% Fab oxidation and % Fc oxidation were calculated as follows: […]
Antioxidants were added at 1 mM. […] After buffer exchange, each solution was prepared for analysis by reverse-phase HPLC as described above.

SMILES | (H2O2 produced by Compound)/(H2O2 produced by L-Trp) [2] | H2O2 production upon light exposure compared to L-Trp (in words) [2] | Oxidation Potential (anodic peak) [3] | Oxidation potential relative to L-Trp (in words) [3] | further results
CSCC[C@H](N)C(=O)O [L-Met, L-methionine] |  |  |  |  | Effect on Fab oxidation of mAb1 (in words) (mAb1 [1]; 10, 25, 50, 100 mM L-Met added to formulation containing 1 mM L-Trp): appeared to reduce Fab oxidation slightly; Effect on Fc oxidation of mAb1 (in words) (mAb1 [1]; L-Met 10, 25, 50, 100 mM added to 1 mM L-Trp, label mAb1 = No Excipient): reduced the amount of Fc oxidation
Nc1ccc2[nH]cc(C[C@H](N)C(=O)O)c2c1 (racemic) [5-Amino-DL-Trp, 5-Amino-Tryptophan] | 0.29 | low levels of H2O2 production | 0.410 V vs Ag/AgCl |  | 
NCCc1c[nH]c2ccccc12 [Tryptamine] | 0.53 | about half as much H2O2 | 1.010 V vs Ag/AgCl | higher oxidation potential than L-Trp | H2O2 production upon light exposure compared to L-Trp (in words) ([2]; listed as tryptamine): two times less
Cc1c(C)c2c(c(C)c1O)CCC(C)(C(=O)O)O2 (stereo not shown) [Trolox] | 122.75 |  |  |  | H2O2 produced in comparison to L-Trp (times more) [2]: 123 times
O=C(O)c1cc2cccc(O)c2[nH]1 [7-Hydroxyindole-2-Carboxylic Acid, 7-Hydroxy Indole-2-Carboxylic Acid] | 0.15 |  |  |  | 
Nc1ccccc1C(=O)CC(N)C(=O)O [L-Kynurenine, Kynurenine] | 0.20 |  | 1.040 V vs Ag/AgCl | higher oxidation potential than L-Trp | H2O2 production upon light exposure compared to L-Trp (in words) ([2]; listed as L-kynurenine): did not produce much H2O2; H2O2 production upon light exposure compared to L-Trp (in words) ([2]; listed as kynurenine): about one fifth of the H2O2
Oc1cccc2[nH]ccc12 [4-Hydroxyindole, 4-Hydroxy Indole] | 0.00 |  |  |  | 
COc1ccc2[nH]cc(CCNC(C)=O)c2c1 [N-acetyl-5-methoxytryptamine] | 0.28 | less than a third of the H2O2 | 0.730 V vs Ag/AgCl |  | 
c1ccc2[nH]ccc2c1 [Indole] | 0.95 | behaved similarly to L-Trp |  | significantly lower oxidation potential than L-Trp | 
O=C(O)Cc1c[nH]c2ccc(O)cc12 [5-Hydroxyindole-3-Acetic Acid, 5-Hydroxy Indole-3-Acetic Acid] | 0.11 | low levels of H2O2 production | 0.535 V vs Ag/AgCl |  | 
NC(Cc1c[nH]c2ccc([N+](=O)[O-])cc12)C(=O)O (racemic) [5-nitro-DL-tryptophan] |  |  | 1.055 V vs Ag/AgCl | higher oxidation potential than L-Trp | 
O=C(O)Cc1c[nH]c2ccccc12 [Indole-3-Acetic Acid] | 2.40 | twice as much H2O2; also recorded: two times more; also recorded: produced more H2O2 | 0.948 V vs Ag/AgCl | higher oxidation potential than L-Trp | 
N[C@@H](Cc1c[nH]c2ccc(F)cc12)C(=O)O [5-Fluoro-L-Trp, 5-Fluoro-Tryptophan] | 0.71 | produced more H2O2 | 0.965 V vs Ag/AgCl | higher oxidation potential than L-Trp | 
Nc1ccccc1C(=O)O [Anthranilic Acid] | 2.50 | twice as much H2O2 |  |  | 
NC(=O)[C@@H](N)Cc1c[nH]c2ccccc12 [L-Trpamide, Tryptophanamide] | 0.43 |  | 1.015 V vs Ag/AgCl | higher oxidation potential than L-Trp | Fc oxidation under light stress compared to no excipient control (in words) (mAb1 [4]): more Fc oxidation; Fab oxidation increase over the control level (mAb1 Ref Mat) (mAb1 [4]; label mAb1 = No Excipient): 8 fold
Nc1ccc(O)cc1C(=O)O [5-Hydroxyanthranilic Acid, 5-Hydroxy Anthranilic Acid] | 0.44 | half as much H2O2 |  |  | 
Cc1ncc(CO)c(CO)c1O [Pyridoxine] | 5.16 |  |  |  | H2O2 produced in comparison to L-Trp (times more) [2]: 5 times
O=C(O)c1cc(O)ccc1O [5-Hydroxysalicylic Acid, 5-Hydroxy Salicylic Acid] | 0.84 |  |  |  | 
COc1ccc2[nH]cc(C[C@H](N)C(=O)O)c2c1 (racemic) [5-Methoxy-DL-Trp, 5-Methoxy-Tryptophan] | 1.05 | produced more H2O2 | 0.890 V vs Ag/AgCl |  | 
CC(=O)N[C@@H](Cc1c[nH]c2ccccc12)C(=O)O [N-Acetyl-L-Trp, N-Acetyl-Tryptophan] | 0.31 |  | 0.875 V vs Ag/AgCl |  | 
Oc1cccc2cc[nH]c12 [7-Hydroxyindole, 7-Hydroxy Indole] | −0.03 |  |  |  | Fab (Trp residue) oxidation of mAb1 after AAPH incubation (mAb1 [5]): about 2%; Effect on light-induced Fab oxidation (in words) (mAb1 [4]): reducing Fab oxidation to near control levels
